Consider 8 compounds from US8283481B2, “Inhibitors of a 9-cis epoxycarotenoid dioxygenase” (National Research Council of Canada, priority 2008, dated 2012).

“Also recorded” adds a separate entry of the source.

The Km is the substrate concentration at which the rate is half of its maximum. One may read the Ki as a dissociation constant, usually derived from enzyme kinetics or from competition with a known ligand.

For one experiment, the target named is T1, recombinant AtNCED3 (Arabidopsis thaliana, UniProt Q9LRR7).
T1 construct: glutathione-S-transferase (GST) (C); made in house; host or cells: E. coli BL21(DE3), pRL296 vector
T1 sequence (Q9LRR7 41-599): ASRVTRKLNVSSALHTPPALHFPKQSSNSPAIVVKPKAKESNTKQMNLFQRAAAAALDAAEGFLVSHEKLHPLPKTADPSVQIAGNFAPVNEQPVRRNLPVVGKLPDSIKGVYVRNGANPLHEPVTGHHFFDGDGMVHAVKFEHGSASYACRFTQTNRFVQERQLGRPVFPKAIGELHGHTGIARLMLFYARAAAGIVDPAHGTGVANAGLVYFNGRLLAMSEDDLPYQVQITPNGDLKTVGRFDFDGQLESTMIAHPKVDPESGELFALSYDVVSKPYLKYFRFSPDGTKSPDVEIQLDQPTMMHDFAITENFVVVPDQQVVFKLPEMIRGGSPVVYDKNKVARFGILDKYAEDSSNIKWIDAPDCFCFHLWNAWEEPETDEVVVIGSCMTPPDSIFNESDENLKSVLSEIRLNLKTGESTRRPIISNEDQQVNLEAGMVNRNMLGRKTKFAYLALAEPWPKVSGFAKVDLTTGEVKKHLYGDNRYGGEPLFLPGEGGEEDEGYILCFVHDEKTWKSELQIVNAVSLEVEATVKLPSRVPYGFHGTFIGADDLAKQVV
The experiment in a line: Recombinant AtNCED3 in vitro enzyme assay (HPLC, cleavage of 9-cis-neoxanthin). In kind it is biochemical. The following applies: for relative inhibition of AtNCED3 activity (in words): in vitro enzyme assay, 1 mM concentration (FIG. 5); for Ki: Dixon plot, competitive inhibition, 0-250 μM inhibitor, 9-cis-neoxanthin at 50 (55), 30 and 10 μM. The text has this:
Fresh spinach was macerated under liquid nitrogen and extracted five times with three volumes of methanol/0.1% KOH. Samples were dried using a roto-evaporator, resuspended in acetone and then chilled on ice for one hour. The solvent was subsequently transferred to a new flask, roto-evaporated and resuspended in acetonitrile/acetone (1:1) mixture. The mixture was applied to a gravity flow column containing C-18 silica gel (Sigma) equilibrated in 65% acetonitrile/35% water (solvent C). The column was washed with 49% acetone (solvent D)/51% solvent A and 20 mL of 55% solvent D/45% solvent A while collecting 5 mL fractions. Fractions containing neoxanthin were pooled, dried, and resuspended in 100 μL of methanol. The pooled mixture was separated using an Agilent 1100 series HPLC and a Supelcosil™ LC-18 (25 cm×10 mm, 5 m) (Supelco) column equilibrated with solvent A. The HPLC method consisted of a linear gradient over 30 minutes from 100% solvent A to 100% solvent D with a flow rate of 4 mL/minute at 22° C. and monitored with a PDA detector at 436 nm. The neoxanthin fractions were collected, dried and resuspended in ethanol. Neoxanthin was quantified by determining its OD439 using a PerkinElmer Lambda 35 UV/VIS Spectrometer and applying its extinction coefficient of 2243 (A^1%1cm).^30
AtNCED3 was over-expressed using the pRL296 expression vector (a gift from M. Cygler, BRI, Montreal) in E. coli (BL21)DE3 cells as a glutathione-S-transferase fusion protein and affinity purified using glutathione sepharose 4 fast flow resin (GE Healthcare) as described previously.^35 Essentially, cells were grown to an OD600 of 0.45 at 37° C. and 200 rpm shaking. The culture was induced with 1 mM isopropyl-β-d-thiogalactoside for 16 h at 15° C. and 200 rpm shaking. The cells were pelleted and resuspended in 50 mM Tris-HCl (pH 8.0) 1 mM DTT and 0.5% protease inhibitor cocktail set III (CalBiochem). Cells were lysed using a french press at 20,000 psi and affinity purified as per manufacturer's instructions (GE Healthcare). Protein concentration was determined by the method of Bradford.^36
Enzymatic assays contained 100 mM Bis-Tris (pH 6.7), […], 10 mM ascorbate, 0.05% Triton™ X-100, catalase (1 mg/mL), neoxanthin and inhibitor to a total volume of 5 L of ethanol and 8 g AtNCED3 to a total assay volume of 100 L. Assays were incubated at 22° C. for 20 min. The assays were stopped with the addition of 50 L of 25% Triton™ X-100 and extracted with 150 L of ethyl acetate. All procedures were performed under red-light to minimize photo-induced damage to assay components and products.^6 Fine chemicals and solvents were purchased from Sigma-Aldrich. 75 μL of the assay extract was injected into an Agilent 1100 series HPLC machine equipped with a Supelcosil™ LC-18 (3.3 cm×4.6 mm, 3 m) (Supelco) column pre-equilibrated with 15% acetonitrile (solvent B)/85% water (solvent A). Solvent B increased to 35% over ten minutes, followed by a linear gradient of 65% solvent B to 100% solvent D over 10 minutes. Solvent D was maintained at 100% for 2 minutes and then the column was returned to 15% solvent B for 5 min. The flow rate was maintained at 1.5 mL/min. and monitored with a photodiode array (PDA) detector at 436 and 262 nm.
Evaluation of recombinant AtNCED3 kinetic parameters for Km was accomplished using Michaelis-Menten equation plotted with EnzFitter™ v2.0.18.0 (Biosoft). The Ki for inhibitors was determined using a Dixon plot and concentration ranges of 250, 200, 150, 100, 50 and 0 μM inhibitor in the presence of either 55, 30 or 10 μM 9-cis-neoxanthin 2.^5

The subject of experiment [1] is Arabidopsis thaliana Col-0 seeds. The experiment in a line: Seed germination assay. In kind it is in vivo. Here is the method: Arabidopsis thaliana Col-0 seeds were sterilized by washing them with 10% sodium hypochlorite and 20% sodium dodecyl sulfate (Sigma) for five minutes and then rinsing four times with sterile water. Seeds were moist chilled for 4 days and then plated on germination medium (0.41% MS salts, 1% sucrose, 0.05% MES and 0.1% Gamborg's vitamins, pH 5.7, 0.7% agar) (Sigma) containing either 0.1, 0.33, 1.0 or 3.33 μM of inhibitor or (+)-ABA 1. As a control, seeds were sewn and germinated on media only without inhibitors or (+)-ABA 1. Germination was recorded over seven days and indexes calculated as described previously.^40

The next experiment has as its target cowpea NCED enzyme. The following applies: background, references 17, 18; read-out: Ki, competitive inhibition of cowpea NCED enzyme; cited from earlier work.
Experiment [2] deals with ABA and catabolites in Arabidopsis thaliana Col-0 plants. In words: Total ABA metabolite levels in mannitol stressed plants treated with SLCCD inhibitors. The format is in vivo. The following applies: 33 μM inhibitor, mannitol stress, first 6 hours. Here is the method: For each condition to be tested, three hundred wild-type Arabidopsis thaliana Col-0 seeds (LEHLE) were sterilized, vernalized and sewn onto 200 mL of Sunshine Mix #3 (Sun Gro) potting material in an 8×8×4 cm pot. Plants were watered continuously with 25 g/100 mL of 20-20-20 (PlantProd™) fertilizer and grown at 22° C. with a 16 hour photoperiod for 22 days. Plants were pre-treated with 50 mL/pot of Buffer A (10 mM HEPES pH 6.5) (Sigma)+/−10 or 33 μM test compound for 2 hours. Plants were then soaked with 50 mL/pot of Buffer A containing 0.4 M mannitol (Sigma)+/−10 or 33 μM test compound. Non-treated/non-stressed control plants were simply soaked in Buffer A at the designated time points. […] Half of the tissue samples were lyophilized for metabolite profiling and the other half taken for quantitative reverse-transcription polymerase chain reaction (qRT-PCR) analysis.
Freeze-dried tissue was homogenized using a multi-tube ball mill (Mini-BeadBeater-96™, Biospec Products Inc., Bartlesville, Okla., USA) and 50 mg of each sample was weighed out into individual Falcon tubes. To each sample, 100 μL of a cocktail of internal standards comprised of (−)-5,8′,8′,8′-d4-ABA, (−)-7′,7′,7′-d3-PA, (−)-5,8′,8′,8′-d4-7′OH ABA, (−)-7′,7′,7′-d3-DPA and (+)-4,5,8′,8′,8′-d5-ABAGE, each at a concentration of 0.2 ng/μL and dissolved in a mixture of water:acetonitrile (1:1, v/v) with 0.5% glacial acetic acid, was added. Further, 3 mL of isopropanol:water:glacial acetic acid (80:19:1, v/v/v) extraction solvent was added, and samples were placed in the fridge (4° C., in the dark) on an orbital shaker at about 350 rpm. After 18-24 hours, the samples were centrifuged at 4.4 krpm for 10 min, the supernatant was transferred to a disposable culture tube, and a second portion of 500 μL extraction solvent mixture was added to wash the pellet. After vortexing and centrifuging again at 4.4 krpm for 10 min, each wash was combined with its appropriate supernatant. The organic extract was dried under reduced pressure, then re-dissolved in 100 μL methanol:glacial acetic acid (99:1, v/v) followed by 900 μL of aqueous 1% glacial acetic acid. This mixture was extracted with 2 mL hexane, and then the aqueous layer was dried down under reduced pressure. The sample was further reconstituted in 2 mL aqueous 1% glacial acetic acid and loaded onto an Oasis MCX SPE cartridge (3 cc, Waters Corporation, Mississauga, Ontario, Canada). After a wash with 3 mL aqueous 1% glacial acetic acid, samples were eluted with 1 mL methanol:glacial acetic acid (99:1, v/v) and then dried down under reduced pressure. The extract was re-dissolved in 100 μL methanol:glacial acetic acid (99:1, v/v) followed by 900 μL of aqueous 1% glacial acetic acid. This mixture was further cleaned on an Oasis HLB SPE cartridge (1 cc, Waters Corporation, Mississauga, Ontario, Canada). After a wash with 1 mL aqueous 1% glacial acetic acid, the fraction containing ABA and ABA metabolites was eluted with 1 mL acetonitrile:water:glacial acetic acid (30:69:1, v/v/v) and then was evaporated to dryness. The final residue was dissolved in 200 μL of acetonitrile:water (15:85, v/v) containing 0.1% glacial acetic acid and 100 pg/μL (±)-3′,5′,5′,7′,7′,7′-d6-ABA as a recovery standard. Finally, the sample was subjected to LC-ES-MS/MS analysis and quantification, as described in Owen and Abrams, 2008.^39

The test system of experiment [3] is ABA metabolite accumulation. The following applies: background, references 17, 18; cited from earlier work.

As to `CC(=C/C=C/C(C)=C/C=C/C=C(C)/C=C/C=C(\C)C=C=C1C(C)(C)C[C@H](O)C[C@@]1(C)O)/C=C/[C@@]12O[C@]1(C)C[C@@H](O)CC2(C)C` (relative stereo) [compound 2, 9-cis-Neoxanthin, reference compound], at recombinant AtNCED3 (cleavage of 9-cis-neoxanthin 2 by recombinant AtNCED3, Michaelis-Menten plot), the Km was 24 µM.

With `CC1=CC(=O)CC(C)(C)C1(O)/C=C/C(C)=C\C(=O)O` (single isomer, unassigned; (+)) [(+)-ABA 1, Abscisic acid, reference compound], the results for the “reduction of seed germination” value in experiment [1] (0.33 μM in germination medium), in experiment [1] (1 μM in germination medium) and in experiment [1] (highest concentration tested (3.33 μM)) were 47%, 61% and 96%, respectively.

Turning to `CCSC/C=C(/C)C#C[C@]1(O)[C@H](C)CC(=O)CC1(C)C` [Compound 11, (4S,5R)-(3′Z)-4-(5′-(Ethylthio)-3′-methylpent-3′-en-1′-ynyl)-4-hydroxy-3,3,5-trimethylcyclohexanone], the “relative inhibition of AtNCED3 activity (in words)” value (“relative inhibition” for short) on recombinant AtNCED3 is “reduced activity”.

In the case of `CCSC/C=C(/C)C#C[C@@]1(O)[C@@H](C)CC(=O)CC1(C)C` [Compound 12, (4R,5S)-(3′Z)-4-(5′-(Ethylthio)-3′-methylpent-3′-en-1′-ynyl)-4-hydroxy-3,3,5-trimethylcyclohexanone], the “relative inhibition” value on recombinant AtNCED3 is “completely inhibited; also recorded: inhibited the enzyme as strongly as the more xanthoxin-like compounds”.

For the compound `CCSC/C=C(/C)C#C[C@]1(O)[C@H](C)C[C@@H](O)CC1(C)C` [Compound 14, (1S,4R,6R)-(3′Z)-1-(5′-(Ethylthio)-3′-methylpent-3′-en-1′-ynyl)-2,2,6-trimethylcyclohexane-1,4-diol], the “relative inhibition” value on recombinant AtNCED3 was “did not afford greater activity”.

In the case of `CCSC/C=C(/C)C#C[C@@]1(O)[C@H](C)C[C@@H](O)CC1(C)C` [Compound 15, (1R,4R,6R)-(3′Z)-1-(5′-(Ethylthio)-3′-methylpent-3′-en-1′-ynyl)-2,2,6-trimethylcyclohexane-1,4-diol], the “relative inhibition” value at recombinant AtNCED3 is recorded as “did not afford greater activity”.

Regarding `COC(=O)CN(C/C=C/c1ccc(OC)c(OC)c1)Cc1ccc(F)cc1` [compound 9, Abamine, reference compound], the Ki is 18.5 µM on cowpea NCED enzyme and 132 µM at recombinant AtNCED3. Also, in experiment [2], the “levels of ABA and catabolites at first time point (in words)” value is “higher levels of ABA and catabolites at the first time point”. Further, in experiment [3], the “reduction of ABA metabolite accumulation” value is given as 35%.

On to Abamine SG [compound 10], for which the Ki at cowpea NCED enzyme is 38.8 µM; at recombinant AtNCED3, 86 µM. In addition, the “reduction of ABA metabolite accumulation” value in experiment [3] was 77%.
